# Reference: the supplement of paper PMC5412046
# Where a name gives a salt, the structure may show the parent alone.
# Key:
# SB.msgc-1 = experiment: AC50 for growth inhibition (viability) (log10 M); higher = less potent; conditions: SB.msgc-1 (sporadic gastric cancer)
# Method in brief: (§1)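 A four-parameter fit of viability, normalised to DMSO, gave the log half-maximal activity concentration, and only high-quality curve classes were kept. Cells came from hereditary or sporadic gastric cancer patients, 500 per 1536 well, and were dosed for 48 h at 11 threefold dilutions from a final 46 μM. Readout was CellTiter-Glo luminescence on a ViewLux.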
# SB.mhdgc-1 = experiment: as above; conditions: SB.mhdgc-1 (hereditary c.1380delA CDH1 gastric cancer)
# Method in brief: as §1
Structure (SMILES),AC50 for growth inhibition (log10 M) (SB.msgc-1),AC50 for growth inhibition (log10 M) (SB.mhdgc-1)
O=C(NCCCNc1nc(Nc2cccc(NC(=O)N3CCCC3)c2)ncc1I)c1cccs1 [BX-795],-4.88,-4.83
O=C(Nc1cccc(Nc2ncc(Br)c(NCCc3cnc[nH]3)n2)c1)N1CCCC1 [BX-912],-4.78,-4.98
CNC1CCCN(c2c(F)cc3c(=O)c(C(=O)O)cn(C4CC4)c3c2OC)C1 (stereo not given) [Balofloxacin],-4.83,-5.63
C[N+](C)([O-])CCNc1ccc(NCC[N+](C)(C)[O-])c2c1C(=O)c1c(O)ccc(O)c1C2=O [Banoxantrone],-4.88,-4.78
O=C(OC)[C@]12CC[C@@]3(C)[C@]4(C)CC[C@H]5[C@@](C)(C)C(=O)C(=C[C@]5(C)C4=CC(=O)[C@@H]3[C@@H]2C[C@](C)(C)CC1)C#N [Bardoxolone methyl],-6.33,-6.28
CC[S+](=O)([O-])N1CC(CC#N)(n2cc(-c3ncnc4[nH]ccc34)cn2)C1 [Baricitinib],-4.63,-4.88
CNC(=O)[C@H](Cc1ccccc1)NC(=O)[C@H](CC(C)C)[C@H](CSc1cccs1)C(=O)NO [Batimastat],-4.93,-4.68
O=C(/C=C/c1cccc([S+](=O)([O-])Nc2ccccc2)c1)NO [Belinostat],-5.47,-5.02
N/C(=N\C(=O)c1nc(Cl)c(N)nc1N)NCc1ccccc1 [Benzamil],-5.53,-5.73
CCOC(=O)[C@H](CCc1ccccc1)N[C@H]1CCc2ccccc2N(CC(=O)O)C1=O [Benzapril],-4.68,-5.03
COc1ccc2cc3[n+](cc2c1OC)CCc1cc2c(cc1-3)OCO2 [Berberine],-5.18,-4.98
CC(O)(C[S+](=O)([O-])c1ccc(F)cc1)C(=O)Nc1ccc(C#N)c(C(F)(F)F)c1 (stereo not given) [Bicalutamide],-5.98,-6.43
N=C1S/C(=C\c2ccc(-c3ccc4c(c3)C(=O)NC4=O)o2)C(=O)N1c1ccc(Br)cc1 [Bioymifi],-5.43,-5.28
CC[C@H](NC(=O)[C@H](C)NC)C(=O)N1C[C@@H](O)C[C@H]1Cc1c(-c2[nH]c3cc(F)ccc3c2C[C@@H]2C[C@H](O)CN2C(=O)[C@H](CC)NC(=O)[C@H](C)NC)[nH]c2cc(F)ccc12 [Birinapant],-5.53,-6.23
Cc1c(N)nc([C@H](CC(N)=O)NC[C@@H](N)C(N)=O)nc1C(=O)N[C@H](C(=O)N[C@@H](C)[C@H](O)[C@@H](C)C(=O)N[C@@H](C(=O)NCCc1nc(-c2nc(C(=O)NCCC[S+](C)C)cs2)cs1)[C@@H](C)O)C(O[C@H]1O[C@H](CO)[C@H](O)[C@@H](O)[C@H]1O[C@H]1O[C@H](CO)[C@@H](O)[C@H](OC(N)=O)[C@@H]1O)c1c[nH]cn1 (stereo not given in full) [Bleomycin sulfate],-5.43,-5.88
CC(C)C[C@H](NC(=O)[C@H](Cc1ccccc1)NC(=O)c1cnccn1)B(O)O [Bortezomib],-7.98,-7.78
Cc1cc2c(F)c(Oc3ncnn4cc(OC[C@@H](C)O)c(C)c34)ccc2[nH]1 [Brivanib],-4.73,-4.98
CCCCOc1ccc(CC(=O)NO)cc1 [Bufexamac],-4.88,-5.43
COc1ccc([S+](=O)([O-])Nc2cc(-c3c(O)ccc4ccccc34)c(O)c3ccccc23)cc1 [C-188-9],-4.73,-4.73
CCCNC(=O)[C@H]1O[C@@H]1C(=O)N[C@H](C(=O)N1CCC[C@H]1C(=O)OC)C(C)CC (stereo not given in full) [CA-074 Me],-4.73,-4.78
O=C(NCc1ccccc1)[C@H](Cc1ccccc1)NC(=O)[C@H]1O[C@@H]1C(=O)NCCc1ccc(O)cc1 [CAA0225],-6.08,-6.48
CC[C@H](NC1=C2N=C[NH]C2=NC=N1)C/3=N/C4=C(C(=CC=C4)F)C(=O)N3C5=CC=CC=C5 [CAL-101],-5.43,-5.18
OCCNC1CCCc2c1[nH]c1ccc(-c3ccccc3)cc21 (stereo not given) [CASIN],-4.63,-4.73
c1cc(OCCN2CCCCC2)cc(-c2n[nH]c3ccc(-c4nc[nH]n4)cc23)c1 [CC-401],-4.78,-4.78
Cc1c(CCOc2ccc(C(=O)O)cc2)c2cc(Cl)ccc2n1C(c1ccccc1)c1ccccc1 [CDIBA],-4.98,-4.73

Structure (SMILES),AC50 for growth inhibition (log10 M) (SB.msgc-1),AC50 for growth inhibition (log10 M) (SB.mhdgc-1)
CN1/C=C(\N=C(NC2=CC=C(C=C2)C(=O)N3CCOCC3)/C1=O)/C4=C(C)C(=CC=C4)NC(=O)C5=CC=C(C=C5)C(C)(C)C [CGI-1746],-5.23,-4.63
ClC1=CC\2=C(NC(=O)\C(=C2N[C@@H]3CN4CCC3CC4)C5=NC6=C([NH]5)C=CC=C6)C=C1 [CHIR-124],-6.53,-6.08
CC(C)n1cnc2c(NCCCCCCNC(=O)OC(C)(C)C)nc(NCCO)nc21 [CK59],-5.23,-4.93
COc1c(C)cnc(Cn2cnc3c(Cl)nc(N)nc32)c1C [CNF-2024],-7.18,-6.33
C#Cc1cccc(Nc2ncnc3cc(OC)c(OCCCCCCC(=O)NO)cc23)c1 [CUDC-101],-7.53,-8.28
COc1ccc(-c2nc(N3CCOCC3)c3sc(CN(C)c4ncc(C(=O)NO)cn4)cc3n2)cn1 [CUDC-907],-7.83,-6.28
N#CCNC(=O)c1ccc(-c2ccnc(Nc3ccc(N4CCOCC4)cc3)n2)cc1 [CYT387],-4.73,-4.78
COc1cc2nccc(Oc3ccc(NC(=O)C4(C(=O)Nc5ccc(F)cc5)CC4)cc3)c2cc1OC [Cabozantinib],-5.48,-6.33
C=C1/C(=C\C=C2/CCC[C@]3(C)[C@@H]([C@H](C)CCCC(C)(C)O)CC[C@@H]23)C[C@@H](O)C[C@@H]1O [Calcitriol],-5.63,-6.53
CC[C@@]1(O)C(=O)OC\C2=C1\C=C\3N(CC4=C3N=C5C=CC=CC5=C4)C2=O [Camptothecin],-7.43,-7.93
C=CC(=O)Nc1cc2c(Nc3ccc(F)c(Cl)c3)ncnc2cc1OCCCN1CCOCC1 [Canertinib],-5.18,-4.73
C[C@@]12C(=O)OC(=O)[C@@]1(C)C1CCC2O1 [Cantharidin],-5.53,-5.28
CC(C)C[C@H](NC(=O)[C@H](CCc1ccccc1)NC(=O)CN1CCOCC1)C(=O)N[C@@H](Cc1ccccc1)C(=O)N[C@@H](CC(C)C)C(=O)[C@@]1(C)CO1 [Carfilzomib],-7.68,-7.93
CCCCCCNC(=O)N1\C=C(F)/C(=O)NC1=O [Carmofur],-5.48,-6.33
COc1ccc2c(c[n+](C)c3c4cc5c(cc4ccc23)OCO5)c1OC [Chelerythrine chloride],-5.03,-5.08
N=C(NCCCCCCNC(=N)NC(=N)Nc1ccc(Cl)cc1)NC(=N)Nc1ccc(Cl)cc1 [Chlorhexidine],-5.43,-5.28
CCN(CC)CCCC(C)Nc1ccnc2cc(Cl)ccc12 (stereo not given) [Chloroquine (CQ)],-4.73,-4.98
Oc1c(Cl)cc(Cl)c2cccnc12 [Chloroxine],-4.68,-4.93
Nc1nc(Cl)nc2c1ncn2[C@H]1C[C@H](O)[C@@H](CO)O1 [Cladribine],-5.83,-6.58
Nc1nc(Cl)nc2c1ncn2[C@@H]1O[C@H](CO)[C@@H](O)[C@@H]1F [Clofarabine],-8.28,-7.83
CN(C)CCCN1c2ccccc2CCc2ccc(Cl)cc21 [Clomipramine hydrochloride],-5.93,-6.13
O=C(c1ccc(F)c(F)c1Nc1ccc(I)cc1F)N1CC(O)([C@H]2CCCCN2)C1 [Cobimetinib],-5.28,-4.78
COc1ccc(/C=C\c2cc(OC)c(OC)c(OC)c2)cc1O [Combretastatin A-4],-5.23,-8.68
C[C@@H]1C[C@H]2[C@@H]3\C=C(C)/C4=C/C5=C(C[C@]4(C)[C@H]3[C@@H](O)C[C@]2(C)[C@@]1(O)C(=O)COC(C)=O)C=N[N]5C6=CC=CC=C6 [Cortivazol],-5.58,-5.53
C[C@@H](Oc1cc(-c2cnn(C3CCNCC3)c2)cnc1N)c1c(Cl)ccc(F)c1Cl [Crizotinib],-4.63,-4.68
